Read-outs that look alike come from different tables or passages of the source.
Legend:
Format in all cases: in vivo
[1] = test system: Caenorhabditis elegans; experiment: Toxicity test, adult Caenorhabditis elegans, 96 well micro plate; conditions: Caenorhabditis elegans
Procedure: (§1) Methodology: Toxicity tests were conducted using J2 juveniles of Meloidogyne incognita adult Caenorhabditis elegans collected from nematode-infested tomato plant roots and culture Petri plates, respectively. Test concentrations of 50, 100, 200, 300, or 400 ppm were prepared in 0.2% dimethylsulfoxide (DMSO) in tap water. Aliquots (300 microliters (ul)) were applied to a 96 well micro plate and a 20 ul aqueous solution containing nematodes was added. The number of nematodes in 20 ul ranged from 17 to 30. Micro plates were sealed with Parafilm™ and incubated at room temperature. Similar tests conducted with 0.2% DMSO in tap water served as controls. Nematode mortality was checked at 24, 48, 72, 120, and 168 hr after incubation. Nematodes that were motionless for 30 sec when observed under a stereomicroscope were considered paralyzed and included in mortality counts. Each concentration was replicated five times and mean percent mortality was calculated after correcting for control mortality using Abbott's formula.
(§2) Data Analysis: Mortality data were analyzed using PROC PROBIT (SAS) program and LC50 values were estimated.

[2] = test system: Meloidogyne incognita; experiment: Toxicity test, J2 juveniles of Meloidogyne incognita, 96 well micro plate; conditions: Meloidogyne incognita
Procedure: as §1, §2

[3] = test system: Drosophila melanogaster; experiment: Toxicity against adult Drosophila melanogaster, sugar solution feeding
Procedure: Toxicity tests were conducted using mixed sex adults of D. melanogaster maintained on artificial diet in the department of entomology, Virginia Tech. Test concentrations of 6.25, 12.5, 25, 50 or 100 ppm were prepared in 0.2% dimethyl sulfoxide (DMSO) for DIDS, 9-AC, NPPB, and IAA-94. The above final concentrations were obtained after mixing them in 10 ml of 10% sugar solution. Similar preparations with 0.2% DMSO alone served as controls. One end of a cotton wick was dipped in 0.5 ml of sugar solution and placed on the glass vial containing 10 adult flies of mixed sex. Each concentration of test chemical had 5 replications. Mortality counts of flies were taken 24, 48, and 72 hrs after treatment. Insects without movement upon probing were considered dead. LC50 values and confidence intervals for each chemical were estimated using POLO PLUS software program. The data provided in Tables 3-A and 3-B below confirm that AT blockers are toxic to insects in acute exposures.

[4] = 24 h, read-out: Corrected Mortality (%)
[5] = 48 h, read-out: Corrected Mortality (%)
[6] = 72 h, read-out: Corrected Mortality (%)
[7] = 120 h, read-out: Corrected Mortality (%)
[8] = 168 h, read-out: Corrected Mortality (%)

## CC1(C2CCCC2)Cc2cc(OCC(=O)O)c(Cl)c(Cl)c2C1=O (single isomer, unassigned; (+)) [IAA-94, (+)(2-cyclopentyl-6,7-dichloro-2-methyl-1-oxo-5-indanyloxy) acetic acid]
[1]; 24 h
  mortality at 50 ppm: 8%
  mortality at 100 ppm: 14%
  mortality at 200 ppm: 17%
  mortality at 300 ppm: 21%
  mortality at 400 ppm: 24%
[1]; [4]
  mortality at 50 ppm: 5%
  mortality at 100 ppm: 11%
  mortality at 200 ppm: 14%
  mortality at 300 ppm: 19%
  mortality at 400 ppm: 22%
[1]; 48 h
  mortality at 50 ppm: 17%
  mortality at 100 ppm: 29%
  mortality at 200 ppm: 38%
  mortality at 300 ppm: 43%
  mortality at 400 ppm: 48%
[1]; [5]
  mortality at 50 ppm: 13%
  mortality at 100 ppm: 25%
  mortality at 200 ppm: 35%
  mortality at 300 ppm: 40%
  mortality at 400 ppm: 45%
[1]; 72 h
  mortality at 50 ppm: 35%
  mortality at 100 ppm: 44%
  mortality at 200 ppm: 64%
  mortality at 300 ppm: 71%
  mortality at 400 ppm: 77%
[1]; [6]
  mortality at 50 ppm: 31%
  mortality at 100 ppm: 40%
  mortality at 200 ppm: 62%
  mortality at 300 ppm: 69%
  mortality at 400 ppm: 76%
[1]; 120 h
  mortality at 50 ppm: 58%
  mortality at 100 ppm: 70%
  mortality at 200 ppm: 90%
  mortality at 300 ppm: 94%
  mortality at 400 ppm: 98%
[1]; [7]
  mortality at 50 ppm: 53%
  mortality at 100 ppm: 67%
  mortality at 200 ppm: 89%
  mortality at 300 ppm: 93%
  mortality at 400 ppm: 98%
[1]; 168 h
  mortality at 50 ppm: 81%
  mortality at 100 ppm: 94%
  mortality at 200 ppm: 99%
  mortality at 300 ppm: 100%
  mortality at 400 ppm: 100%
[1]; [8]
  mortality at 50 ppm: 78%
  mortality at 100 ppm: 93%
  mortality at 200 ppm: 99%
  mortality at 300 ppm: 100%
  mortality at 400 ppm: 100%
[2]; 24 h
  mortality at 50 ppm: 8%
  mortality at 100 ppm: 10%
  mortality at 200 ppm: 14%
  mortality at 300 ppm: 20%
  mortality at 400 ppm: 24%
[2]; [4]
  mortality at 50 ppm: 5%
  mortality at 100 ppm: 7%
  mortality at 200 ppm: 11%
  mortality at 300 ppm: 19%
  mortality at 400 ppm: 22%
[2]; 48 h
  mortality at 50 ppm: 17%
  mortality at 100 ppm: 22%
  mortality at 200 ppm: 34%
  mortality at 300 ppm: 38%
  mortality at 400 ppm: 43%
[2]; [5]
  mortality at 50 ppm: 12%
  mortality at 100 ppm: 17%
  mortality at 200 ppm: 30%
  mortality at 300 ppm: 34%
  mortality at 400 ppm: 39%
[2]; 72 h
  mortality at 50 ppm: 30%
  mortality at 100 ppm: 38%
  mortality at 200 ppm: 61%
  mortality at 300 ppm: 65%
  mortality at 400 ppm: 70%
[2]; [6]
  mortality at 50 ppm: 22%
  mortality at 100 ppm: 31%
  mortality at 200 ppm: 57%
  mortality at 300 ppm: 61%
  mortality at 400 ppm: 67%
[2]; 120 h
  mortality at 50 ppm: 51%
  mortality at 100 ppm: 61%
  mortality at 200 ppm: 83%
  mortality at 300 ppm: 90%
  mortality at 400 ppm: 97%
[2]; [7]
  mortality at 50 ppm: 45%
  mortality at 100 ppm: 56%
  mortality at 200 ppm: 81%
  mortality at 300 ppm: 89%
  mortality at 400 ppm: 97%
[2]; 168 h
  mortality at 50 ppm: 74%
  mortality at 100 ppm: 85%
  mortality at 200 ppm: 99%
  mortality at 300 ppm: 100%
  mortality at 400 ppm: 100%
[2]; [8]
  mortality at 50 ppm: 71%
  mortality at 100 ppm: 83%
  mortality at 200 ppm: 99%
  mortality at 300 ppm: 100%
  mortality at 400 ppm: 100%
[3]; 48 hr
  LC50 (ppm): 170.05 ppm
[3]; 72 hr
  LC50 (ppm): 115.67 ppm
